Source: patent US20130143869A1, “USE OF A CATIONIC AMPHIPHILIC DRUG FOR THE PREPARATION OF A FORMULATION FOR THE REDUCTION OF SUBCUTANEOUS ADIPOSE TISSUE” (Merz Pharma GmbH & CO. KGaA, priority 2010, published 2013)
Where a name gives a salt, the structure may show the parent alone. One block for each compound: values may come before it.

Tests used:
human adipocyte cells [1] = assay: Cytotoxicity assay: metabolic activity (resazurin conversion) of human adipocytes; assay type: cell-based
Experimental: (§1) HWP were obtained in passage two and differentiated in vitro to mature adipocytes. Briefly, cells were initially cultured in preadipocyte growth medium at 37° C. and 5% CO2 to 70-80% confluency. Then, cells were seeded at 40,000 cells/ml into 96-well flat bottom tissue culture plates and incubated overnight to allow attachment. Differentiation was initiated by changing the medium to preadipopcyte differentiation medium for an additional 72 hrs. After differentiation was induced, the medium was replaced by adipocyte nutrition medium that was refreshed every 2-3 days over a period of 14 days until termination of differentiation. Differentiation status was checked via nile red staining of control cells.
The test items 1 to 8 were prepared according to Table 1 to yield respective stock solutions. Said stock solutions were further diluted in assay media to obtain the double concentrated working solutions, which were subsequently diluted 1:2 in the final assay. […] Deoxycholate Na was selected as “reference compound”.
(§2) For the cytotoxicity assays in this study pre-adipocytes were seeded at 40,000 cells/ml into a 96-well microtiter flat bottom plate. The test items were prepared in separate plates starting with the double concentrated maximal test concentration followed by a 1:2 serial dilution (Chloroquine and Fluoxetine 1:3) and then added to the cells. The test items were tested at 6 replicates/concentration. Each plate included negative controls (media plus solvent, 6 replicates), a drug interference control (all concentrations, duplicates), a background control (14 replicates), a positive (=cytotoxic) control (6 replicates doxorubicin, 1 μM final) and a positive control for maximal LDH-release (2 replicates, 2% Triton-x 100 final).
(§3) Relative cell viability was determined after 48 hrs exposure based on metabolic activity (i.e. resazurin conversion). Using a Victor^3 1420 Multilabel Counter, the resazurin conversion to the fluorescent resorufin by metabolically active cells was recorded at 560Ex/590Em. Membrane integrity was measured after 6 hrs and 48 hrs and the enzymatic activity of released LDH in the cell supernatant after 30 min of incubation at 492 nmabsorption/690 nmreference by a spectrophotometer. The volume withdrawn from the cultures for the LDH-assay was not replaced to keep cells in a less disturbed environment. The assay was conducted in a multiplexed format.
In order to derive meaningful IC50 values from the primary data, the entire biological window of activity ranging from 0% to 100% viability should be covered and the resolution has to be sufficient. To improve data quality, the serial dilution factor used in previous experiments was reduced to a 1:2 and 1:3 dilution. […] IC50 (half maximal inhibitory concentration, calculated via Sigma Plot 10) values were determined for each test substance 1 to 8.
(§4) The effects on cytotoxicity in human adipocyte cells of a further 9 compounds were tested. The experimental set-up was identical to the one in example 1.

human adipocyte cells [2] = assay: Membrane integrity: LDH release from human adipocytes (LDH assay); assay type: cell-based; conditions: for Rel. max. LDH release [%] 48 hrs: Example 1, 48 hrs, relative to Triton-x 100 maximal LDH release; for IC50: read-out: IC50 48 hrs LDH, Example 2, 48 hrs
Experimental: as §1, §2, §3
For the dose-response relationship, absolute absorption (OD treated wells−background) was plotted against the test item concentrations representing LDH leakage from the cells. For a better estimation of the test items' potential influencing the membrane integrity, relative, maximal LDH release in percent (see Table 2) was also calculated according to the following formula: […]
as §4

subcutaneous fat-tissue = conditions: rats
Human white adipocytes = assay: Apoptosis/necrosis detection, Annexin V-FITC/PI flow cytometry; assay type: cell-based
From the text: The apoptotic program is characterized by certain morphologic features. Loss of plasma membrane asymmetry is a well established indicator for apoptotic cells. In apoptotic cells, the membrane phospholipid phosphatidylserine (PS) is translocated from the inner to the outer leaflet of the plasma membrane, thereby exposing PS to the external environment. In general, this PS translocation is preceded by caspase activation. Annexin V labelled with FITC is a Ca^2+ dependent phospholipid-binding protein with high affinity for PS and binds to cells with externalized PS. Cells stained with Annexin V*FITC are therefore considered in an early apoptotic stage.
Staining with Annexin V-FITC is typically used in conjunction with a vital dye such as propidium iodide (PI) to allow discrimination between early apoptotic and necrotic cells. Necrotic dying cells are PI positive only. Cells that are viable are Annexin V and PI negative; cells that entered apoptosis are Annexin V positive and PI negative and cells that are in post apoptotic and/or necrotic phase are both Annexin V and PI positive.
Human white adipocytes that had been differentiated in vitro from pre-adipocytes as describe above were used. Measurements were performed after 5 hrs to catch early apoptotic/necrotic events and after 24 hrs and 48 hrs for later stages. Naringenin at 500 μM (reported to induce apoptosis in adipocytes) was used as positive control and media plus solvent was used as negative control. Each compound was tested in three different concentrations. […] Two more concentrations, one below and one above the IC50 were added.
Flow cytometry was performed with a dual laser FC500. After completion of the staining procedure, tubes were grouped into a FC500 carousel for semi-automated data acquisition. Cells were first acquired in “Setup” mode to tune the parameters FS, SS, FL1 and FL2. After completion of the setup, baseline compensation was switched on and cells were acquired. Cells were acquired without life-gate but using FS threshold to exclude debris. All cells were acquired using individually corrected settings.
After completion of data acquisition, analysis was done using the CXP software. If necessary, software-based post acquisition compensation was performed to fine-correct for fluorescence overlap not adjusted for during the acquisition phase. Quadrant markers were set based on the negative controls.

[3] = Homo sapiens, Adipocyte, read-out: IC50 48 hrs Resazurin, Example 2, 48 hrs
[4] = Homo sapiens, Adipocyte, read-out: IC50 (metabolic activity after 48 hrs), Example 1, 48 hrs exposure, resazurin
[5] = 1 mg/mL, 300 μL s.c. Day 1, 7, 28, histology day 29

SMILES: CCN(CC)CCCC(C)Nc1ccnc2cc(Cl)ccc12 (centres unmarked) [Test substance 1, Chloroquine]
- IC50 (human adipocyte cells [1]; Homo sapiens, Adipocyte, 48 h, read-out: IC50 (metabolic activity after 48 hrs)): 599 µM
- Rel. max. LDH release [%] 48 hrs (human adipocyte cells [2]): 101.8%

SMILES: CNCCC(Oc1ccc(C(F)(F)F)cc1)c1ccccc1 (centres unmarked) [Test substance 4, Fluoxetine HCl]
- IC50 (human adipocyte cells [1]; [4]): 52 µM
- Rel. max. LDH release [%] 48 hrs (human adipocyte cells [2]): 101.0%
- degree of histological changes at administration sites (subcutaneous connective and/or adipose tissue) (subcutaneous fat-tissue; [5]): minimal or mild in degree
- edema at administration sites (subcutaneous fat-tissue; [5]): minimal or mild
- fibrosis at administration sites (subcutaneous fat-tissue; [5]): minimal or mild
- haemorrhage at administration sites (subcutaneous fat-tissue; [5]): minimal or mild
- infiltrates of granulocytes at administration sites (subcutaneous fat-tissue; [5]): minimal
- infiltrates of mononuclear cells at administration sites (subcutaneous fat-tissue; [5]): minimal to moderate
- single cell death of inflammatory cells and/or connective tissue at administration sites (subcutaneous fat-tissue; [5]): minimal
- adipocytolysis (concluded from inflammatory reaction) (subcutaneous fat-tissue; repetitive s.c. injection): causes adipocytolysis
- primary mode of cell death (Human white adipocytes): fast and strong apoptosis induction
- Early Apoptosis [A-V*/PI*] (Human white adipocytes; 40 μM, 5 hrs): 26.9
- Necrosis/ Late Apoptosis [A-V*/PI*] (Human white adipocytes; 40 μM, 5 hrs): 0
- Necrosis/ Late Apoptosis [A-V*/PI*] (Human white adipocytes; 40 μM, 24 hrs): 2.6
- Normal [A-V*/PI] (Human white adipocytes; 40 μM, 24 hrs): 49.9
- Early Apoptosis [A-V*/PI*] (Human white adipocytes; 40 μM, 48 hrs): 22.7
- Necrosis/ Late Apoptosis [A-V*/PI*] (Human white adipocytes; 40 μM, 48 hrs): 7.7
- Early Apoptosis [A-V*/PI*] (Human white adipocytes; 60 μM, 5 hrs): 58.5
- Necrosis/ Late Apoptosis [A-V*/PI*] (Human white adipocytes; 60 μM, 5 hrs): 1.3
- Normal [A-V*/PI] (Human white adipocytes; 60 μM, 5 hrs): 45.2
- Early Apoptosis [A-V*/PI*] (Human white adipocytes; 60 μM, 24 hrs): 78.7
- Necrosis/ Late Apoptosis [A-V*/PI*] (Human white adipocytes; 60 μM, 24 hrs): 5.5
- Normal [A-V*/PI] (Human white adipocytes; 60 μM, 24 hrs): 14.7
- Early Apoptosis [A-V*/PI*] (Human white adipocytes; 60 μM, 48 hrs): 37.9
- Necrosis/ Late Apoptosis [A-V*/PI*] (Human white adipocytes; 60 μM, 48 hrs): 19.8
- Normal [A-V*/PI] (Human white adipocytes; 60 μM, 48 hrs): 42.3
- cells apoptotic (Human white adipocytes; 80 μM, 5 h): more than 50%
- Necrosis/ Late Apoptosis [A-V*/PI*] (Human white adipocytes; 80 μM, 5 hrs): 1.6
- Normal [A-V*/PI] (Human white adipocytes; 80 μM, 5 hrs): 47
- Early Apoptosis [A-V*/PI*] (Human white adipocytes; 80 μM, 24 hrs): 41.9
- Necrosis/ Late Apoptosis [A-V*/PI*] (Human white adipocytes; 80 μM, 24 hrs): 44.1
- Normal [A-V*/PI] (Human white adipocytes; 80 μM, 24 hrs): 14
- Necrosis/ Late Apoptosis [A-V*/PI*] (Human white adipocytes; 80 μM, 48 hrs): 42.2
- Normal [A-V*/PI] (Human white adipocytes; 80 μM, 48 hrs): 2.7
- apoptosis/necrosis induction in human adipocytes (in words) (Human white adipocytes; 5, 24, 48 hrs, concentrations as in Table 4): rapidly induced strong apoptosis

SMILES: CC(CCc1ccccc1)NCC(O)c1ccc(O)c(C(N)=O)c1 (centres unmarked) [Test substance 7, Labetalol HCl]
- IC50 (human adipocyte cells [1]; [4]): 659 µM
- Rel. max. LDH release [%] 48 hrs (human adipocyte cells [2]): 101.1%

Further lines, with some results ahead:

- IC50 (human adipocyte cells [2]; Homo sapiens, Adipocyte): ~31.2 µM
SMILES: Fc1ccc([C@@H]2CCNC[C@H]2COc2ccc3c(c2)OCO3)cc1 [Paroxetine]
- IC50 (human adipocyte cells [1]; [3]): 39.3 µM

- IC50 (human adipocyte cells [2]): ~379 µM
SMILES: C[C@H](CCC(=O)[O-])[C@H]1CC[C@H]2[C@@H]3CC[C@@H]4C[C@H](O)CC[C@]4(C)[C@H]3C[C@H](O)[C@]12C.[Na+] [Test substance 8, Deoxycholate Na]
- IC50 (human adipocyte cells [1]; read-out: IC50 48 hrs Resazurin, Example 2, 48 hrs, listed as Deoxycholate): ~616 µM
- IC50 (human adipocyte cells [1]; read-out: IC50 48 hrs Resazurin, Example 2, 48 hrs, listed as deoxycholate): 616 µM
- IC50 (human adipocyte cells [1]; read-out: IC50 (metabolic activity after 48 hrs), Example 1, 48 hrs exposure, resazurin): 446 µM
- Rel. max. LDH release [%] 48 hrs (human adipocyte cells [2]): 98.0%

- IC50 (human adipocyte cells [2]): ~7.4 µM
SMILES: Clc1ccc(C(Cn2ccnc2)OCc2ccsc2Cl)c(Cl)c1 (centres unmarked) [Thioconazole]
- IC50 (human adipocyte cells [1]; read-out: IC50 48 hrs Resazurin, Example 2, 48 hrs): 10.5 µM

- IC50 (human adipocyte cells [2]; Homo sapiens, Adipocyte): ~22.2 µM
SMILES: COc1ccccc1OCCNCC(O)COc1cccc2[nH]c3ccccc3c12 (centres unmarked) [Carvedilol]
- IC50 (human adipocyte cells [1]; [3]): 28.4 µM
